# Assay results as given in US20230364230A1, “COMBINATION THERAPY FOR CANCER” (ENGMAB SÀRL, priority 2020, published 2023).
# Tests used:
# [1] = system: H929 target cells; experiment: Protein 1 induced ADCC after pretreatment of both PBMC and H929 target cells; type: cell-based, human
# Method: PBMCs from a healthy donor were pre-incubated for 48 hours in the presence of CC-92480 or CC-220 (iberdomide) or a DMSO control. Additionally, H929 cells were also pre-incubated separately from the PBMCs for 48 hours with CELMoD. For CC-92480, PBMC and H929 were incubated in 0.1 nM, 1 nM or 10 nM concentrations. For CC-220, cells were incubated in 1 nM or 10 nM concentrations. Cells were also pre-incubated in with a DMSO control. After pretreatment, PBMC and H929 were combined based on their matched treatments and incubated for an additional 18 hours or overnight in the presence of a dose range of Protein 1, 0 nM to 10 nM. Samples were analyzed via flow cytometry for H929 depletion. Specific lysis was calculated as following: (1−((test sample H929 count)/(H929 count in DMSO control without PBMC and without Protein 1)))*100. PBMC and H929 cells were pretreated separately with varying doses of CC-92480 (FIG. 14A) or CC-220 (FIG. 14B) or a DMSO control for 48 hours. After pretreatment, PBMCs and H929 target cells were combined and co-cultured overnight with a dose range of Protein 1 at 0 nM to 10 nM. H929 cell depletion was analyzed by flow cytometry. […] Pretreatment of both PBMC and H929 target cells with CC-92480 or CC-220 (iberdomide) enhanced Protein 1 induced ADCC.
# [2] = system: H929 target cells; experiment: Protein 1 induced ADCC after pretreatment of PBMCs with different concentrations (H929 lysis, flow cytometry); type: cell-based, human; conditions: for % lysis with Protein 1: 0.1 nM Protein 1, % change from DMSO control + Protein 1; for % lysis without Protein 1: % change from DMSO control
# Method: PBMCs from two healthy donors were pre-incubated for 24 hours or 48 hours in the presence of CC-92480 or a DMSO control. CC-92480 was added at 0.001 nM, 0.01 nM, 0.1 nM, 1 nM and 10 nM concentrations. After pretreatment, PBMCs were incubated for an additional 18 hours or overnight in the presence of H929 target cells with or without the addition of 0.1 nM of Protein 1. Samples were analyzed via flow cytometry for H929 depletion. Specific lysis was calculated as following: (1−((test sample H929 count)/(H929 count in DMSO control without Protein 1)))*100. PBMCs from two healthy donors were pre-incubated for 24 hours or 48 hours in the presence of CC-220 or a DMSO control. CC-220 was added at 0.01 nM, 0.1 nM, 1 nM, 10 nM and 100 nM concentrations. After pretreatment, PBMCs were incubated for an additional 18 hours or overnight in the presence of H929 target cells with or without the addition of 0.1 nM of Protein 1. Samples were analyzed via flow cytometry for H929 depletion. Specific lysis was calculated as following: (1−((test sample H929 count)/(H929 count in DMSO control without Protein 1)))*100. […] Data is normalized to % change of sample from the control treated DMSO sample+/−Protein 1. For % lysis without Protein 1, the control sample is PBMC pretreated with DMSO+H929. For % lysis with Protein 1, the control sample is PBMC pretreated with DMSO+H929+0.1 nM of Protein 1.
# [3] = system: H929 target cells; experiment: Protein 1 induced ADCC after pretreatment of PBMCs with single concentration, Protein 1 dose range; type: cell-based, human; conditions: PBMCs pretreated 24 or 48 hours with 0.1 nM CC-92480 or 1 nM CC-220; Protein 1 0 nM to 10 nM
# Method: PBMCs from a healthy donor were preincubated for 24 hours or 48 hours in the presence of CC-92480 at 0.1 nM or CC-220 (iberdomide) at 1 nM or a DMSO control. After pretreatment, PBMCs were incubated for an additional 18 hours or overnight in the presence of H929 target cells with concentrations of Protein 1 ranging from 0 nM to 10 nM. Samples were analyzed via flow cytometry for H929 depletion. Specific lysis was calculated as following: (1−((test sample H929 count)/(H929 count in DMSO control without Protein 1)))*100. PBMCs were pretreated 0.1 nM of CC-92480 or 1 nM of CC-220 or DMSO control for either 24 hours (FIG. 13A) or 48 hours (FIG. 13B). After pretreatment, PBMCs were cultured with H929 target cells and 0 nM to 10 nM of Protein 1 overnight. H929 lysis was determined via flow cytometry. Pretreatment of PBMCs with single concentration of CC-92480 or CC-220 enhanced Protein 1 induced ADCC.
# [4] = system: TMD8 cells; experiment: HLA-DR and CD86 expression in TMD8 cells by flow cytometry; type: cell-based; conditions: 48 hours
# Method: DLBCL cell line TMD8 was treated with avadomide for 48 hours. […] The result corroborated the ChIP-seq analysis (FIG. 10B).
# [5] = system: NKG2D+ NK cells; experiment: Surface expression of NKG2D on NK cells in DLBCL patient PBMC; type: cell-based, human; conditions: PBMCs treated 1 hour prior to anti-CD3 stimulation for 3 days
# Method: Surface expression of NKG2D was measured by flow cytometry gated on live CD3-CD19-CD14-CD56+CD16+NK cells.
# [6] = biological target: T1, Ikaros (Homo sapiens, UniProt Q13422+Q96SW2); experiment: Degradation of Ikaros in primary NK cells (intracellular staining, flow cytometry); type: cell-based; set-up: endogenous in cells; host or cells: primary human NK cells gated from healthy-donor PBMCs; conditions: PBMCs from healthy donors (n=7), dose titrations, 5 hours
# T1 sequence (Q13422 whole entry): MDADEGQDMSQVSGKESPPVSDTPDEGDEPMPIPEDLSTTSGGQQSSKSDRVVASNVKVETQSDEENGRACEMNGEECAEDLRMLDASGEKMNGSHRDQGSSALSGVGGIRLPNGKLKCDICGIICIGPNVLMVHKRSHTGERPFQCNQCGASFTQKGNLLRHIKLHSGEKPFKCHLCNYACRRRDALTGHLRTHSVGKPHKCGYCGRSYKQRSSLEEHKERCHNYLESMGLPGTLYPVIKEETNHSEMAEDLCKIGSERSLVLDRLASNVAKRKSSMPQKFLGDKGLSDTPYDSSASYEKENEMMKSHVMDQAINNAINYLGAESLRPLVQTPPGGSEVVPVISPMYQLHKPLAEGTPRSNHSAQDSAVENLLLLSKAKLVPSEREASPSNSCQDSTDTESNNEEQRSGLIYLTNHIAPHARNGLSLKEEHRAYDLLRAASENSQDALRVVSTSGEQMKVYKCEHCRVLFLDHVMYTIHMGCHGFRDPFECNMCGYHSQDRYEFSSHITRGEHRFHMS
# T1 sequence (Q96SW2 whole entry): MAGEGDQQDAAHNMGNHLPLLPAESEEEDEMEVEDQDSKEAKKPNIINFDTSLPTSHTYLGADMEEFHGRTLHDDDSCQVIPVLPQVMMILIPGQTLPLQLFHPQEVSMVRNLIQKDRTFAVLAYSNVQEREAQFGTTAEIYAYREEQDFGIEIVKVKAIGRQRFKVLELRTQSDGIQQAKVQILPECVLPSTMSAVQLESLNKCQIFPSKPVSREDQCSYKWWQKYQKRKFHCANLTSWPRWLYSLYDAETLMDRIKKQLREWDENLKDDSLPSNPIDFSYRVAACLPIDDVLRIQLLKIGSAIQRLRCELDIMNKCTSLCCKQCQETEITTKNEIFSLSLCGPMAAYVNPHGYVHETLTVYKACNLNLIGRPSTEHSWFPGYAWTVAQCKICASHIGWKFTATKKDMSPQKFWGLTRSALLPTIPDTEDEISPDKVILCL
# T1 sequence (Q16531 whole entry partner): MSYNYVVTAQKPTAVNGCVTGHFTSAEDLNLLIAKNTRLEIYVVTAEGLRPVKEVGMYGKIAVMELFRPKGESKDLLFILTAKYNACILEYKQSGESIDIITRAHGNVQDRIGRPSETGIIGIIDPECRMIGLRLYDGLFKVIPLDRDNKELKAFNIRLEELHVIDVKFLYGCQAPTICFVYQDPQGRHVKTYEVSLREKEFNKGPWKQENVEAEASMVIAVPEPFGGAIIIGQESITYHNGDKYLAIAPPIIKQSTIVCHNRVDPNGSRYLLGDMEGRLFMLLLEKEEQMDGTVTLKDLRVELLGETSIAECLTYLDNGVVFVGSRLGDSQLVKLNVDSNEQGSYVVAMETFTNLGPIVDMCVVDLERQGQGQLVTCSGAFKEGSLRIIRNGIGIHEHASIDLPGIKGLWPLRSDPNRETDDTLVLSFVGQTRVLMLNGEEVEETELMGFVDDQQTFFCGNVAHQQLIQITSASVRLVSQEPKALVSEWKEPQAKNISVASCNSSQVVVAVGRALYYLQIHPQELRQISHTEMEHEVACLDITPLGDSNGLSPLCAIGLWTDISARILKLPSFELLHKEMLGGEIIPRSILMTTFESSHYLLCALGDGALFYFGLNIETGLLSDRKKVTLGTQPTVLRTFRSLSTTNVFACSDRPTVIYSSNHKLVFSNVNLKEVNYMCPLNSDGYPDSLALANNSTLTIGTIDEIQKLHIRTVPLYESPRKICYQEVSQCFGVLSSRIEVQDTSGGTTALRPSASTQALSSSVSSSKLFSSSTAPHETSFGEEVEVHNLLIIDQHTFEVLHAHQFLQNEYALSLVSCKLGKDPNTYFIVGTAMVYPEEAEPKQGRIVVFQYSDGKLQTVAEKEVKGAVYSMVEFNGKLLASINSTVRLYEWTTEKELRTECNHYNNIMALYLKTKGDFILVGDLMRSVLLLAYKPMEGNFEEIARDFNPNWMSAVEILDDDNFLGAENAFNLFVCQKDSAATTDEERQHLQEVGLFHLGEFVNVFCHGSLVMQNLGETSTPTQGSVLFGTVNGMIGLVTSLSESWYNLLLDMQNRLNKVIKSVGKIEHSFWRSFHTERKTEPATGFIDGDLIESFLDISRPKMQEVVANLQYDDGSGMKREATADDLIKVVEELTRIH
# Method: (§1) Intracellular staining of Aiolos and Ikaros in primary human NK cells was performed by flow cytometry gating on live, CD3-CD4-CD8-CD56+CD16+NK cell populations.
# [7] = biological target: T2, Aiolos (Homo sapiens, UniProt Q96SW2+Q9UKT9); experiment: Aiolos expression by western blot in DLBCL cells; type: cell-based; set-up: endogenous in cells; host or cells: Karpas 422, WSU-DLCL2, U2932 and TMD8 DLBCL cells; conditions: Karpas 422, WSU-DLCL2, U2932 and TMD8 cells, 0.1, 1, or 10 μM
# T2 sequence (Q9UKT9 whole entry): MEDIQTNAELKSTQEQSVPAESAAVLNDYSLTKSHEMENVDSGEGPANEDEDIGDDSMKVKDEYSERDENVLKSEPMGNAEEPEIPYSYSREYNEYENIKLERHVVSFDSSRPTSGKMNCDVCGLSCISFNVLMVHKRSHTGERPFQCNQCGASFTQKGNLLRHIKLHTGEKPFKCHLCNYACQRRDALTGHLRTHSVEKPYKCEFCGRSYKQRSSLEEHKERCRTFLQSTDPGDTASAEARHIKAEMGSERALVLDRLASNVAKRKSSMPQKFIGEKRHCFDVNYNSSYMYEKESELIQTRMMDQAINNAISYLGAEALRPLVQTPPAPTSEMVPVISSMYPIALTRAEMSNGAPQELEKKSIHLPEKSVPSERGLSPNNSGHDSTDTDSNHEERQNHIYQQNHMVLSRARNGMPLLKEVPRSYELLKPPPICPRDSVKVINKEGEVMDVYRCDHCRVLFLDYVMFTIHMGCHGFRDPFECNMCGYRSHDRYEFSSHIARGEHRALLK
# T2 sequence (Q96SW2 whole entry): as the sequence (Q96SW2 whole entry) above
# T2 sequence (Q16531 whole entry partner): as the sequence (Q16531 whole entry partner) above
# Method: (§2) Karpas 422, WSU-DLCL2, U2932 and TMD8 cells were treated with avadomide at a concentration of 0.1, 1, or 10 μM. The expression of Aiolos, Ikaros, […] and IRF4 were measured by western blot.
# [8] = system: NK cells; experiment: NK cell proliferation in DLBCL patient PBMCs stimulated with anti-CD3; type: cell-based, human; conditions: PBMCs treated 1 hour prior to anti-CD3 stimulation for 3 days
# Method: Percentage of NK cells was analyzed via flow cytometry gated on live CD3-CD19-CD14-CD56+CD16+NK cells. Cytokinic NK cells were […]16^low and cytotoxic NK cells were CD56^lowCD16^high populations.
# [9] = system: interferon stimulated genes; experiment: Induction of interferon stimulated genes in DLBCL cells; type: cell-based; conditions: correlated with degradation of Aiolos and Ikaros
# Method: as §2
# The induction of interferon stimulated genes was correlated with the degradation of Aiolos and Ikaros. […] Such direct regulation was shown using Chromatin Immunoprecipitation sequencing (ChIP-seq) analysis and generic methods, see, e.g., Hagner et al, Blood, 126(6):779-789 (2015), which is incorporated by reference in its entirety.
# [10] = biological target: T1, Ikaros; experiment: Ikaros expression by western blot in DLBCL cells; type: cell-based; set-up: endogenous in cells; host or cells: Karpas 422, WSU-DLCL2, U2932 and TMD8 DLBCL cells; conditions: Karpas 422, WSU-DLCL2, U2932 and TMD8 cells, 0.1, 1, or 10 μM
# Method: as §2
# [11] = biological target: T2, Aiolos; experiment: Degradation of Aiolos in primary NK cells (intracellular staining, flow cytometry); type: cell-based; set-up: endogenous in cells; host or cells: primary human NK cells gated from healthy-donor PBMCs; conditions: PBMCs from healthy donors (n=7), dose titrations, 5 hours
# Method: as §1
# [12] = pretreatment 0.1 nM, 24 hour, donor 1
# [13] = pretreatment 0.1 nM, 24 hour, donor 2
# [14] = pretreatment 0.1 nM, 48 hour, donor 1
# [15] = pretreatment 0.1 nM, 48 hour, donor 2
# [16] = pretreatment 10 nM, 24 hour, donor 1
# [17] = pretreatment 10 nM, 24 hour, donor 2
# [18] = pretreatment 10 nM, 48 hour, donor 1
# [19] = pretreatment 10 nM, 48 hour, donor 2
smiles,measurement,setting,value
"N#Cc1ccc(N2CCN(Cc3ccc(COc4cccc5c4CN([C@H]4CCC(=O)NC4=O)C5=O)cc3)CC2)c(F)c1 [CC-92480, (S)-4-(4-(4-(((2-(2,6-dioxopiperidin-3-yl)-1-oxoisoindolin-4-yl)oxy)methyl)benzyl)piperazin-1-yl)-3-fluorobenzonitrile]",susceptibility of H929 target cells to lysis,"[1]; H929 target cells pretreated 48 hours, most notably at Protein 1 0.01-0.1 nM",more susceptible to lysis
same,Protein 1 induced ADCC (H929 cell depletion),"[1]; PBMC and H929 pretreated separately 48 hours, Protein 1 0 nM to 10 nM",enhanced
same,Protein 1 induced ADCC (H929 lysis),"[2]; PBMCs pretreated 24 or 48 hours at different concentrations, 0.1 nM Protein 1 overnight",enhanced
same,% lysis difference with Protein 1,[2]; [12],48.85%
same,% lysis with Protein 1,[2]; [12],58.27%
same,% lysis without Protein 1,[2]; [12],9.42%
same,% lysis difference with Protein 1,[2]; [13],76.64%
same,% lysis with Protein 1,[2]; [13],67.82%
same,% lysis without Protein 1,[2]; [13],−8.82%
same,% lysis difference with Protein 1,[2]; [14],79.40%
same,% lysis with Protein 1,[2]; [14],64.54%
same,% lysis without Protein 1,[2]; [14],−14.86%
same,% lysis difference with Protein 1,[2]; [15],36.79%
same,% lysis with Protein 1,[2]; [15],82.02%
same,% lysis without Protein 1,[2]; [15],45.23%
same,% lysis difference with Protein 1,[2]; [16],27.75%
same,% lysis with Protein 1,[2]; [16],28.79%
same,% lysis without Protein 1,[2]; [16],1.04%
same,% lysis difference with Protein 1,[2]; [17],−33.32%
same,% lysis with Protein 1,[2]; [17],−43.51%
same,% lysis without Protein 1,[2]; [17],−10.19%
same,% lysis difference with Protein 1,[2]; [18],72.35%
same,% lysis with Protein 1,[2]; [18],42.46%
same,% lysis without Protein 1,[2]; [18],−29.89%
same,% lysis difference with Protein 1,[2]; [19],52.72%
same,% lysis with Protein 1,[2]; [19],59.57%
same,% lysis without Protein 1,[2]; [19],6.85%
same,Protein 1 induced ADCC (H929 lysis),[3],enhanced
"Cc1nc2cccc(N)c2c(=O)n1C1CCC(=O)NC1=O (centres unmarked) [avadomide, 3-(5-amino-2-methyl-4-oxoquinazolin-3(4H)-yl)piperidine-2,6-dione]",expression of CD86,[4],enhanced expression
same,expression of HLA-DR,[4],enhanced expression
same,NKG2D+ NK cells in DLBCL patient PBMC,[5],significantly expanded
same,degradation of Ikaros in primary NK cells,[6],mediates degradation
same,degradation of Aiolos in DLBCL cells,[7],mediated degradation
same,NK cell proliferation in DLBCL patient samples,[8],dose dependently enhanced
same,induction of interferon stimulated genes in DLBCL cells,[9],induction
same,degradation of Ikaros in DLBCL cells,[10],mediated degradation
same,degradation of Aiolos in primary NK cells,[11],mediates degradation
"Nc1cccc2c1CN(C1CCC(=O)NC1=O)C2=O (centres unmarked) [lenalidomide, 3-(7-amino-3-oxo-1H-isoindol-2-yl)piperidine-2,6-dione]",NKG2D+ NK cells in DLBCL patient PBMC,[5],significantly expanded
